According to a melting point compilation (Tetko et al.; mined from patent text by program, amines drawn as free bases though some values may be those of a salt):

melting point [°C]	Compound
177	CCCCCS(=O)(=O)NC(=O)/C=C/c1ccc(OCCOC)cc1NC(=O)c1ccc(Cl)cc1Cl
282	CCOC(=O)c1c(N2CCN(C(=O)c3cccs3)CC2)c2cscc2[nH]c1=O
66 to 68	Cc1ccc(Cl)cc1-c1noc(CCC#Cc2ccccn2)n1
176	C[C@]12C[C@H](c3ccc(OCCCCCCCl)cc3)[C@@H]3c4ccc(O)cc4CC[C@H]3[C@@H]1CC[C@@H]2O
183 to 186	c1cc2c3c(ccc2[nH]1)NCC3
141 to 142	CC(C)(C)COc1cccc(C[C@H]2NC(=O)O[C@H]2c2cccc(Cl)c2)c1 (racemic)
334 to 337	O=C(O)c1cccc2cc(Cc3cc(=O)[nH]c(=S)[nH]3)ccc12
116 to 117	COCOc1cc(C=CC(=O)c2c(OC)cc(OC)c(CC=C(C)C)c2O)ccc1OC
209 to 211	N#Cc1cc(-c2nc3cncnc3s2)ccc1Oc1ccccc1Cl
117 to 118	CCCC1(CCC)CCC2(CC1)CC(=O)N(CCC#N)C2=O
174 to 176	N#CCOc1cc(C(F)(F)F)nc2ccc(-c3cc4ccccc4o3)cc12
255 to 257	COc1cc(C(F)(F)F)ccc1-c1ccc2c(c1)S(=O)(=O)NC(C1CCCCC1)N2 (stereo not drawn)
36 to 37	CCCCC(=O)c1ncc(-c2ccccn2)o1
152 to 154	COc1ccc(-c2cn(-c3ccc(C(F)(F)F)cc3F)nn2)cc1
211 to 214	Nc1ncnc2c1c(-c1cn[nH]c1)nn2Cc1oc2ccc(F)cc2c(=O)c1-c1ccccc1
118 to 120	CC(C)OC(=O)c1nn(-c2ccc(Cl)cc2)c(=O)c2c(N)scc12
149	CC(C)Oc1cc(CCCNC(=O)NS(=O)(=O)c2ccccc2)n(Cc2ccc(Cl)cc2Cl)n1
133 to 134	CN(C)C(=S)n1c(SC(F)(F)C(F)F)nc(-c2ccccc2)c1-c1ccccc1
143 to 144	CNC(=O)c1cnn(-c2ccc(Cl)cc2Cl)c1C(F)(F)F
> 300	Cc1nc2c(O)nc3ccccc3c2n1C
140 to 142	CCN1CCN(c2nc(-c3ccc(OCCO)cc3OC)cc3ccccc23)CC1
171 to 173	CC(=O)c1ccc(OCCOc2ccc3ccccc3c2)c(F)c1
75	CC1(Cc2cc(C(C)(C)C)c(O)c(C(C)(C)C)c2)CCCCC1=O (stereo not drawn)
191 to 193	CC(C)(C(=O)NC1CCCCC1)c1ccc(S(=O)(=O)/C=C/C#N)cc1
167 to 168	c1ncn(CCc2ccc3c(c2)-c2[nH]nc(-c4ccsc4)c2C3)n1

melting point [°C]	Compound
177 to 179	Cn1cc2c(Cl)cc(-c3ccccc3)nc2n1
169 to 174	COc1cccc2c1C(=O)N(CCl)S2(=O)=O
199	OP(O)C(NC(c1ccccc1)c1ccccc1)C1CCCCC1 (stereo not drawn)
88 to 91	O=C1N(Cc2cccc(OC(F)(F)F)c2)c2ccccc2C12COc1cc3c(cc12)OCO3 (stereo not drawn)
144	CCCCOc1ccc(S(=O)(=O)C2(C(=O)O)CCN(Cc3ccccc3)CC2)cc1
58	COc1ccc(C(=O)Cl)cc1I
135	Cc1cccc(NC(=O)NCC(=O)N(CC(=O)N2CCc3ccccc3C2)c2ccccc2)c1
64 to 65	CCc1cc(CC)n2ncc(Br)c2n1
84	NC[C@H]1COc2ccc(Cl)c(-c3ccccc3C(F)(F)F)c2O1
210 to 212	O=C(NCc1ccc(Cl)cc1)c1cn2c3c(cc(CN4CCOCC4)cc3c1=O)OC(CN1CCCC1)C2 (stereo not drawn)
62.3 to 63.1	CCCCCCCc1ccc2cc(-c3ncc(CC)cn3)ccc2c1
83 to 84	COc1ccc([C@@H]2Sc3cc(Cl)ccc3N(CCN(C)C)C(=O)[C@@H]2OCC(=O)OC(C)(C)C)cc1
203 to 204	C[Si](C)(C)CCc1nnc(N)nc1N
191	COc1cc2ncnc(N3CCC(CCBr)CC3)c2cc1OC
298 to 301	CC(C)CNC1=NS(=O)(=O)c2ccc(Cl)cc2N1
76 to 83	COc1ccc(C2(C)CCc3cc(OC)ccc3C2CCCCCCO)cc1 (stereo not drawn)
120 to 122	CN(C)CC1CC(c2ccc(Cl)cc2)c2ccccc2O1 (stereo not drawn)
160 to 165	O=C1OC(=O)c2cc3occc3c3cccc1c23
165 to 168	Fc1ccc(Oc2ccc(-c3c[nH]cn3)cc2)cc1
131 to 133	CN(C)CC1CCCCN1CCCNC(=O)N1c2ccccc2NC(=O)c2ccccc21 (stereo not drawn)
241 to 243	CCOC(=O)c1ccc(N2CCc3[nH]c4c(cnc5cc(Cl)ccc54)c3C2)cc1
119	CCOC(=O)c1c(N2CCN(C(=O)c3ccco3)CC2)c2cc(F)cnc2n(Cc2ccccc2)c1=O
187	COc1ccc(C(=O)c2cc3c(c(Cl)c2Cl)OC(C(=O)O)C3)cc1 (stereo not drawn)
132 to 134	Cn1cc(-c2cccc(C(F)(F)F)c2)c(=O)o1
116 to 118	Cc1ccc(S(=O)(=O)n2ccnc2C(O)(c2ccccc2)c2ccc(Cl)cc2)cc1 (stereo not drawn)

melting point [°C]	Compound
220 to 221	CC(=O)c1ccc(Nc2c3ccccc3nc3occc23)cc1
122 to 125	C#CCOc1cc(C(N)=O)cc(Cl)c1OCC#C
148 to 149	CCOC(=O)CC(=O)c1cc(F)c(OC)nc1Nc1ccc(F)cc1F
251 to 260	O=[N+]([O-])c1ccc2c(c1)ncn2-c1cccc(-c2nccs2)c1
160	COc1cc2c(cc1OC)CN(CCCOc1ccc(NC(=O)c3nccc4ccccc34)cc1)CC2
218 to 221	C=CCONC(=O)c1nc(-c2ccc(C#N)cc2)cc(N)c1Cl
197 to 199	CC(=O)c1cc(S(N)(=O)=O)ccc1O
75 to 76	CCN(CC)c1ccc([N+](=O)[O-])cn1
112 to 115	CC(C)CCCc1c(-c2ccc(S(C)(=O)=O)cc2)cnn(-c2ccc(F)cc2)c1=O
210	C#CCOc1ccc(OC)cc1-c1nc2cnccc2[nH]1
53 to 54	CN(C)C=NS(=O)(=O)CCC(C)(C)CC#N
235 to 237	NCc1ccc(C(=O)O)cc1[N+](=O)[O-]
91 to 93	CCCCCCCCCCCCCCCCNC(=O)c1cc(OCCSCC(=O)O)c2ccccc2c1O
119 to 124	COc1ccc(OCc2ccccn2)c(/C=C/c2cc(/C=C/c3ccc4cc[nH]c4c3)n[nH]2)c1
150 to 156	Cc1c(C(N)=O)oc2c(C(=O)NCCCN3CCN(c4cc(Cl)ccc4OS(=O)(=O)C(F)(F)F)CC3)cccc2c1=O
187 to 189	COc1cc2c(cc1C#N)C1(CO2)C(=O)N(Cc2ccccn2)c2ccccc21 (stereo not drawn)
254 to 255	COc1c(-c2cc3c(s2)CC(O)C3)ccc2c(=O)c(C(=O)O)cn(C3CC3)c12 (stereo not drawn)
134 to 135	CCCc1ccc(C(=O)O)c2ccccc12
73 to 75	O=C(CC(Cc1cccc2ccccc12)C(=O)O)NCCc1c[nH]c2ccccc12 (stereo not drawn)
293 to 294	Cc1cc(-c2ccc(C(=O)O)cc2)ccn1
236 to 238	CC(=O)O[C@H]1[C@H](NC(C)=NC#N)c2cc(C#N)ccc2OC1(C)C (relative stereo)
194 to 197	CCc1cn(C2CC(O)C(CNC(=O)C(C)Cc3c(Cl)cccc3Cl)O2)c(=O)[nH]c1=O (mixture of isomers)
164 to 168	CCCCc1nc(Cl)c(CO)n1Cc1ccc2oc(-c3ccccc3C#N)c(OC)c2c1
119 to 120	COC(=O)C(C(=O)OC)c1ccccc1C(=O)O
208 to 210	CC(=O)Oc1ccc(-c2cc3ccc(OC(C)=O)cc3s2)cc1

melting point [°C]	Compound
126 to 127	CSc1cccc(S(N)(=O)=O)c1
69 to 71	N#CCCCCCNC(N)=S
120 to 139	CN1CCC2(C#N)C(C1)C1CN(C)C2C=C1C(=O)c1ccccc1 (stereo not drawn)
67 to 68	O=C(NCCCl)NOCc1ccccc1
139 to 144	CNC(=O)N(O)Cc1ccc(OCCc2nc(-c3ccccc3)oc2C)cc1
195	CN(C)Cc1cc(Nc2nncc3ccccc23)cc(CN(C)C)c1O
97 to 99	COc1ccc(C2=NN(C3CCN(S(=O)(=O)CCNCC(O)c4ccc(O)c(CO)c4)CC3)C(=O)[C@@H]3CC=CC[C@H]23)cc1OC (stereo partly drawn)
144 to 145	N#CCNC(=O)c1ccc(Cl)c(Cl)c1
108	Clc1c(CBr)c(CBr)cc2ccccc12
150 to 151	COC(=O)c1cc2c3ccccc3n(C(=O)c3ccccc3)c2s1
191 to 193	COc1cccc(Nc2ncc3cc4ccccc4n3n2)c1
200 to 202	CCOC(=O)Cn1c(=O)sc2ccc(C3=NNC(=O)NC3C)cc21 (stereo not drawn)
131	CCC(=O)NNC(=O)c1ccncc1
221 to 222	CC(C)CCCC(C)C1C=CC2(CC(=O)O)C3=C(CCC12C)C1(C)CCC(O)CC1CC3 (stereo not drawn)
105 to 107	CC1(O)OC(=O)C=C1c1ccccc1 (stereo not drawn)
163 to 166	CC(C)C(=O)N(O)Cc1ccc2c(c1)Cc1ccccc1-2
74	CCOC(=O)COC(=O)c1cccnc1C#N
78 to 79	CCCc1ccc(-c2nnc(SC)nn2)cc1
174 to 176	CC1=C(c2ccnc3ccccc23)SCC(=O)N1
168 to 170	O=C(O)COc1cccc2c1CCc1sc(S(=O)(=O)CC(c3ccccc3)c3ccccc3)nc1-2
81 to 83	COc1cc(OC)c(C(=O)C=Cc2ccc(C)cc2)c(OP(=O)(O)O)c1
362 to 365	O=C(O)c1ccc(NC(=O)c2ccncc2)cc1

Compound	melting point [°C]
CCCCN(CCCC)Cc1nc(-c2ncn3c2CN(C)C(=O)c2cc(F)ccc2-3)no1	137 to 140
O=[N+]([O-])c1ccc2c(c1)C(c1ccccc1F)=NCC(OP(=O)(N1CCOCC1)N1CCOCC1)=N2	169 to 172
CN1C2CCC1CC(=NO)C2	140 to 142
OC(CCCN1CC=C(c2ccccc2)CC1)c1ccc(F)cc1 (stereo not drawn)	116 to 117
ClC(Cl)c1cccc2nnsc12	131 to 133
O=C1CC(C2CCCC2)CN1 (stereo not drawn)	117 to 119
